Reference: the NIST ThermoML archive (doi:10.1016/j.jct.2014.10.007)
Values joined by “and” are separate entries in the source; they are usually repeats but may differ in a detail not shown here. Equal entries are not always repeated.

Assay: molar heat capacity at constant pressure; xn = mol fraction of the nth substance listed
Conditions: 1 kPa, Liquid, Small sample (50 mg) DSC

[Ca+2].[F-].[F-] [calcium fluoride] + [F-].[Li+]
Conditions	molar heat capacity at constant pressure
1255 K, x1 = 0.25	98.98 J/K/mol
1255.2 K, x1 = 0.125	70.22 J/K/mol
1255.2 K, x1 = 0.375	113.91 J/K/mol
1274.7 K, x1 = 0.25	102.2 J/K/mol
1275 K, x1 = 0.375	118.44 J/K/mol
1275.1 K, x1 = 0.125	82.4 J/K/mol
1294.9 K, x1 = 0.25	103.71 J/K/mol
1294.9 K, x1 = 0.375	121.83 J/K/mol
1305.1 K, x1 = 0.125	80.92 J/K/mol
1314.9 K, x1 = 0.25	96.32 J/K/mol
1315.2 K, x1 = 0.375	118.21 J/K/mol
1325.3 K, x1 = 0.125	79.47 J/K/mol
1334.9 K, x1 = 0.5	133.92 J/K/mol and 120.41 J/K/mol
1335.2 K, x1 = 0.25	98.52 J/K/mol
1335.2 K, x1 = 0.375	115.41 J/K/mol
1345.4 K, x1 = 0.125	83.81 J/K/mol
1354.9 K, x1 = 0.5	125.69 J/K/mol and 133.39 J/K/mol
1355.4 K, x1 = 0.125	82.43 J/K/mol
1355.5 K, x1 = 0.375	116.94 J/K/mol
1355.6 K, x1 = 0.25	98.96 J/K/mol
1375.4 K, x1 = 0.5	130.29 J/K/mol and 135.8 J/K/mol
1375.5 K, x1 = 0.375	117.98 J/K/mol
1375.7 K, x1 = 0.125	75.1 J/K/mol
1375.7 K, x1 = 0.25	95.16 J/K/mol
1395.9 K, x1 = 0.5	132.9 J/K/mol and 134.28 J/K/mol
1396 K, x1 = 0.125	81.03 J/K/mol
1396.1 K, x1 = 0.25	106.8 J/K/mol
1396.2 K, x1 = 0.375	111.04 J/K/mol
1415.9 K, x1 = 0.5	130.4 J/K/mol and 137.28 J/K/mol
1416 K, x1 = 0.125	75.28 J/K/mol
1416.1 K, x1 = 0.25	101.47 J/K/mol
1416.1 K, x1 = 0.375	112.61 J/K/mol
1436.2 K, x1 = 0.125	76.95 J/K/mol
1436.2 K, x1 = 0.5	135.89 J/K/mol and 130.39 J/K/mol
1436.3 K, x1 = 0.375	112.16 J/K/mol
1436.4 K, x1 = 0.25	102.59 J/K/mol
1456.5 K, x1 = 0.375	120.54 J/K/mol
1456.5 K, x1 = 0.5	134.58 J/K/mol and 132.82 J/K/mol
1456.6 K, x1 = 0.125	77.21 J/K/mol
1456.8 K, x1 = 0.25	102.41 J/K/mol
1476.7 K, x1 = 0.5	147.97 J/K/mol and 127.49 J/K/mol
1476.8 K, x1 = 0.125	83.38 J/K/mol
1476.9 K, x1 = 0.375	111.58 J/K/mol
1477 K, x1 = 0.25	101.6 J/K/mol
1497.1 K, x1 = 0.125	90.8 J/K/mol
1497.1 K, x1 = 0.375	123.99 J/K/mol
1497.1 K, x1 = 0.5	143.74 J/K/mol and 127.89 J/K/mol
1497.2 K, x1 = 0.25	101.05 J/K/mol
1517.3 K, x1 = 0.125	97.18 J/K/mol
1517.4 K, x1 = 0.5	142.13 J/K/mol and 123.38 J/K/mol
1517.5 K, x1 = 0.375	109.29 J/K/mol
1517.6 K, x1 = 0.25	104.18 J/K/mol
